From ChEMBL document CHEMBL1128982, “3-Hydroxy-quinolin-2-ones: Inhibitors of [3H]-glycine binding to the site associated with the NMDA receptor” (Bioorg Med Chem Lett, 1996) come the findings set out here.

The target in assay [1] is T1, Glutamate NMDA receptor (Rattus norvegicus) (UniProt P35439+Q00959+Q00960+Q00961+Q62645+Q8VHN2+Q9R1M7). Description: Displacement of [3H]glycine from NMDA receptor of rat cortical membranes. It is filed as cell membranes. Set-up: concentration or dose not given beside the values. The following applies: Membrane, concentration not given here. On the technique in general: Displacement assays read how much labelled ligand stays bound in the presence of the test substance.

Assay [2] addresses Glutamate NMDA receptor. Description: Displacement of [3H]-glycine from NMDA receptor of rat cortical membranes. It is filed as cell membranes, Membrane.
Assay [3] addresses Glutamate receptor ionotropic, AMPA (Rattus norvegicus) (UniProt P19491+P19492+P19493+P19490). Description: Displacement of [3H]AMPA from AMPA receptor of rat cortical membranes. It is filed as cell membranes. Also noted: concentration or dose not given beside the values. The following applies: Membrane, concentration not given here.
Assay [4] has as its target T1, Glutamate NMDA receptor (Rattus norvegicus). Description: Compound was evaluated for its ability to displace [3H]-glycine from rat cortical membranes at concentration 10 uM for NMDA receptor.

With `Oc1cc2c(Cl)c(Cl)ccc2nc1O`, the inhibition (as a rule, the change of the read-out against control, counted positive when it falls) in assay [1] worked out at 0%.

As for `Oc1nc2ccccc2c(Br)c1O`, in assay [1], the inhibition was determined as 59%.

As for `CCOC(=O)C(=O)c1c(O)c(O)nc2ccccc12`, the IC50 – broadly, the concentration that inhibits the measured activity by half – in assay [2] was found to be 12 µM. `O=C(O)C(=O)c1c(O)c(O)nc2cc(Cl)cc(Cl)c12`: the inhibition in assay [3] came out at 63%. In assay [2], this compound came in with a half-inhibitory concentration (IC50) of 0.52 µM. On to `Oc1nc2ccc(Cl)c(Cl)c2c(Br)c1O`, for which the inhibition in assay [1] was found to be 23%. Same read-out and setting: to `CCOC(=O)c1c(O)c(O)nc2cc(Cl)c(Cl)cc12` belongs 43%. `CCOC(=O)c1c(O)c(O)nc2cc(Cl)cc(Cl)c12` returned an IC50 in assay [2] of 0.062 µM.

As to `CCOC(=O)c1c(O)c(O)nc2ccc(Cl)c(Cl)c12`, the inhibition in assay [1] is 38%. As to `O=C(O)c1c(O)c(O)nc2ccccc12`, in assay [1], the inhibition was found to be 60%. Turning to `CCOC(=O)c1c(OC)c(O)nc2cc(Cl)cc(Cl)c12`, the inhibition in assay [4] turned out to be 5%.

In assay [1], `COc1ccc(NC(=O)c2c(O)c(O)nc3ccccc23)cc1OC` showed an inhibition of 0%.

In assay [3], `Oc1nc2cc(Cl)cc(Cl)c2c(Cl)c1O` displayed an inhibition of 48%. Moreover, the IC50 in assay [2] was 4.5 µM. Taken in the same sequence, the figures for `COC(=O)C(=O)c1c(O)c(O)nc2cc(Cl)cc(Cl)c12` were 28% and 0.15 µM. For the compound `O=C(NCc1ccccc1)c1c(O)c(O)nc2ccccc12`, the inhibition in assay [1] came out at 40%. `O=c1[nH]c2ccccc2cc1O` registered an inhibition in assay [1] of 29%. As to `O=C(Nc1ccccc1)C(=O)c1c(O)c(O)nc2cc(Cl)cc(Cl)c12`, the inhibition in assay [3] was 40%. For the same compound, the IC50 in assay [2] was 0.76 µM.

For the compound `O=C(O)/C=C/c1c(O)c(O)nc2ccccc12`, the inhibition in assay [1] is 43%. The compound `CCOC(=O)/C=C/c1c(O)c(O)nc2ccccc12` came in with an inhibition in assay [1] of 11%.

On to `CCOC(=O)c1c(OC)c(O)nc2ccccc12`, for which the inhibition in assay [4] is 0%.

In the case of `O=C(O)CCc1c(O)c(O)nc2ccccc12`, in assay [1], the inhibition worked out at 25%. On the same count and under the same terms, to `CCOC(=O)c1c(O)c(O)nc2ccccc12` belongs 50%. In turn, `Oc1nc2ccccc2c(Cl)c1O` returned an IC50 in assay [2] of 1.4 µM.

In turn, `CCOC(=O)C(=O)c1c(O)c(O)nc2cc(Cl)cc(Cl)c12` gave an inhibition in assay [3] of 56%. Besides, in assay [2], the IC50 came to 0.029 µM. Taken in the same sequence, the figures for `O=C(O)C(=O)c1c(O)c(O)nc2ccccc12` were 31.9% and 1.8 µM. Compound `Oc1nc2cc(Cl)cc(Cl)c2c(Br)c1O` came in with an inhibition in assay [3] of 41%. Besides, the half-maximal inhibitory concentration (IC50) in assay [2] came out at 2.8 µM. `CNC(=O)C(=O)c1c(O)c(O)nc2cc(Cl)cc(Cl)c12` showed an inhibition in assay [3] of 15%. Moreover, the half-inhibitory concentration (IC50) in assay [2] worked out at 3.8 µM.

As for `Oc1cc2c(Cl)cc(Cl)cc2nc1O`, the inhibition in assay [1] came out at 29%. In the case of `COC(=O)C(=O)c1c(O)c(O)nc2ccccc12`, the inhibition in assay [3] was determined as 2.6%. This compound gave a concentration for half-maximal inhibition (IC50) in assay [2] of 3 µM. Turning to `Oc1nc2ccc(Cl)c(Cl)c2c(Cl)c1O`, the inhibition in assay [1] was 20%.

Compound `CCOC(=O)c1c(OC)c(O)nc2cc(Cl)c(Cl)cc12` came in with an inhibition in assay [4] of 0%.
